Experimental findings from US20020155503A1 (priority 1997, published 2002) are described below.

This experiment deals with protein tyrosine kinase v-Abl (Abelson murine leukemia virus, UniProt P00521). The note with it: Library Sub-Set 4 (X-Tyr-X-X-X).
Chain of protein tyrosine kinase v-Abl (P00521 whole entry): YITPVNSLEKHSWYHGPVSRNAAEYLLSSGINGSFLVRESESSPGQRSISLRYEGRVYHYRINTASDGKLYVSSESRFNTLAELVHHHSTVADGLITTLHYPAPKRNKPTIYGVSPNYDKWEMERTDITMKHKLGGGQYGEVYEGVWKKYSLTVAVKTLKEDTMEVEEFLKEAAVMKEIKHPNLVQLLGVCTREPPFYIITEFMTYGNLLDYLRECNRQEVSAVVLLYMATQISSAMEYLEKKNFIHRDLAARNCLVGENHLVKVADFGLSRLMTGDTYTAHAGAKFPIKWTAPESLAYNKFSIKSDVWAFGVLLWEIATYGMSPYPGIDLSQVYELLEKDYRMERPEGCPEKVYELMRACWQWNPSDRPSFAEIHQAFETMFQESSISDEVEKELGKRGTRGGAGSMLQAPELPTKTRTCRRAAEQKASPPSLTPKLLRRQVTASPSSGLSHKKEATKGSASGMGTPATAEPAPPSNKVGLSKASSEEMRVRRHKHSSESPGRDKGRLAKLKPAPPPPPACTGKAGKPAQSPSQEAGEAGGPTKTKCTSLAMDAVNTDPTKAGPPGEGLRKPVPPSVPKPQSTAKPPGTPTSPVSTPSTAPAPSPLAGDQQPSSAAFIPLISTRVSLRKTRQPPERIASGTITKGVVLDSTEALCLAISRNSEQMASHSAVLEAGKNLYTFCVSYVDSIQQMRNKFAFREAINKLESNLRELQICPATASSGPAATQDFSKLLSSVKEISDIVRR

Description: In the fourth application of this invention, a recombinant form of the Abelson murine leukaemia virus protein tyrosine kinase v-Abl was used in an in vitro phosphorylation reaction to phosphorylate the library sub-set 4 which scans the sequence −1 to +3 around a zero position tyrosine residue, as previously performed for the ZAP-70 library. Detection of phosphoryrosine was achieved using anti-phosphotyrosine antibody detection in an ELISA assay using tetramethylbenzidine substrate and recording absorbance at 450 nm. […] Deconvolution of the hit peptides was performed as described in WO 97/42216.
Library peptides were phosphorylated in pools of 20 peptides at a final concentration of 1 μM total peptide in 50 mM HEPES, pH 7.5, 0.1% Triton X-100, 100 μM ATP, 10 mM MnCl2, 1 mM DTT and 0.2 mM sodium orthovanadate for 30 minutes at 30° C. These reaction mixtures were then stopped using 100 mM EDTA, 6 mM adenosine, transferred to strepavidin-coated microtiter plates and allowed to bind for 30 minutes at 20° C. Unincorporated reaction products were washed from the plate using PBS/0.1% Tween 20 then plate incubation performed with anti-phosphotyrosine antibody (Sigma mouse monoclonal clone PT66) in 2% BSA/PBS/Tween for 1 hour at 20° C. […] HRP detection was then performed with tetramethylbenzidine (TMB) substrate and measuring absorbance at 450 nm using a spectrophotometer (Dynex MRX). […]

Take “Serine-tyrosine-phenylalanine-histamine-glutamine”: the “substrate deconvoluted from library sub-set” value is “active site substrate recognition substrate”.
